Here are results for 47 compounds from patent publication US11512053B2, “Arginine methyltransferase inhibitors and uses thereof” (priority 2013, dated 2022).

pIC50: −log10 of the molar value. Counter-ions that a name gives are not always drawn. Like-named read-outs stand apart in the source and are kept apart here. Where only a bound is given, the exact number is not on record here.

The target in experiment [1] is full-length human PRMT6 (Flag- and His-tagged) (Homo sapiens, UniProt Q96LA8). The experiment can be described thus: PRMT6 Biochemical Assay (3H-SAM Flashplate, peptide substrate). The conditions noted are these: read-out: Biochemical IC50 PRMT6. In a few lines: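 Flag/His-tagged full-length human PRMT6 (1 nM) preincubated with compound 30 min at room temperature in Bicine pH 7.6 buffer, then reaction started with 3H-SAM 200 nM plus unlabeled SAM 250 nM and biotinylated H4 36-50 peptide (K44me1) 75 nM; 2% DMSO. Quenched with 400 uM cold SAM; labeled peptide captured on streptavidin Flashplate, counted; % inhibition vs DMSO and 1 mM SAH controls fit by 3- or 4-parameter curve.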

Experiment [2] addresses full-length human PRMT1 isoform 1 (GST-tagged) (Homo sapiens, UniProt Q99873). The experiment can be described thus: PRMT1 Biochemical Assay (3H-SAM Flashplate, peptide substrate). In a few lines: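 GST-tagged full-length PRMT1 from baculovirus-infected cells, preincubated 30 min at room temperature with compound in 20 mM Bicine pH 7.6, TCEP, BSG, Tween 20. Reaction started with 3H-SAM plus biotinylated peptide, stopped with 300 uM unlabelled SAM. Streptavidin Flashplate capture and scintillation counting; % inhibition curve-fitted for IC50.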

The mark [3] stands for this setting: single experiment or average of multiple experiments.

full-length human PRMT6 (Flag- and His-tagged), sequence (Q96LA8 with tags, fused parts or gaps): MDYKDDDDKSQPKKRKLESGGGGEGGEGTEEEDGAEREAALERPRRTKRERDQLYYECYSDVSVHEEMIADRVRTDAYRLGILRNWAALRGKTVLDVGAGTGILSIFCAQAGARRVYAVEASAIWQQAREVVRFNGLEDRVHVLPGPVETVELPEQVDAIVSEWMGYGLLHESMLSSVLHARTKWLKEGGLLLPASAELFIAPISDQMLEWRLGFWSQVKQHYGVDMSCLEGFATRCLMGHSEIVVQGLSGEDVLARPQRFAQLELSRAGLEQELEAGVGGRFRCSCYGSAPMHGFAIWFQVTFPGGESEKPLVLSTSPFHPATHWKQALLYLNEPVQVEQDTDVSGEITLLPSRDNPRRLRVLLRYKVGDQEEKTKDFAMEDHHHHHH
full-length human PRMT1 isoform 1 (GST-tagged), sequence (Q99873 with tags, fused parts or gaps): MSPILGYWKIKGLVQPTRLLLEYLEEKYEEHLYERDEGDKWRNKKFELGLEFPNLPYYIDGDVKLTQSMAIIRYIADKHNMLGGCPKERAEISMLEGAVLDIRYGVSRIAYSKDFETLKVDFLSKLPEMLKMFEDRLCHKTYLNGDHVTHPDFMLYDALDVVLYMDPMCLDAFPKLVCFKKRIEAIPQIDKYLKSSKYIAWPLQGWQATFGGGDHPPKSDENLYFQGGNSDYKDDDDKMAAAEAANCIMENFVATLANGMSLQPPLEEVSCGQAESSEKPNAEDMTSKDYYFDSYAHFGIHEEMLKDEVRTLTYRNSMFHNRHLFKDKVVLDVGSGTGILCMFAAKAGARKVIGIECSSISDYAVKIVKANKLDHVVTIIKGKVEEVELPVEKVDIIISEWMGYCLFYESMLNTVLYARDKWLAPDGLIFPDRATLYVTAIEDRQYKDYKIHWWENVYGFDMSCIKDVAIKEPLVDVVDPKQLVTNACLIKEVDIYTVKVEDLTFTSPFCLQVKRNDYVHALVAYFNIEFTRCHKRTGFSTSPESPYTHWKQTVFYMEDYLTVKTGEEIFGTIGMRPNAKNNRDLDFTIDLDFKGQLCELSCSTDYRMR

As to `CC1CCC(c2n[nH]cc2CN(C)CCN)CC1` (stereo not drawn) [Compound 37, N^1-methyl-N^1-((3-(4-methylcyclohexyl)-1H-pyrazol-4-yl)methyl)ethane-1,2-diamine], the pIC50 in experiment [1] (setting [3]) and in experiment [2] (setting [3]) was 8.00 each time.
Regarding `CN(CCN)Cc1n[nH]cc1C1CCC(C)(C)CC1` [Compound 36], the pIC50 (commonly the IC50 on a negative log10 scale, so that one unit is a factor of ten) in experiment [1] (setting [3]) was 8.00.
As to `CNCCN(C)Cc1c[nH]nc1C1CCC(OC(C)C)CC1` (stereo not drawn) [Compound 56], the negative logarithm of the IC50 (pIC50) is greater than 7.00 in experiment [1], 7.21 in experiment [1] (setting [3]), greater than 7.00 in experiment [2] and 7.86 in experiment [2] (setting [3]).
As for `CNCCN(C)Cc1c[nH]nc1C#Cc1cccc(OC)c1` [Compound 1], the pIC50 in experiment [1] (setting [3]) is 7.15; in experiment [2] (setting [3]), 8.00.
For the compound `CNCCN(C)Cc1c[nH]nc1C1CCC2(CC1)CC(C)OC(C)C2` (stereo not drawn) [Compound 63], the pIC50 in experiment [1] was greater than 7.00; in experiment [1] (setting [3]), 7.92; in experiment [2], greater than 7.00; in experiment [2] (setting [3]), 8.05.
For `CN(CCN)Cc1c[nH]nc1/C=C/c1cccc(F)c1` [Compound 20], the pIC50 in experiment [1] (setting [3]) and in experiment [2] (setting [3]) was 7.70 throughout.
Turning to `CN(CCN)Cc1c[nH]nc1CCc1ccc(F)cc1` [Compound 23, N^1-((3-(4-fluorophenethyl)-1H-pyrazol-4-yl)methyl)-N^1-methylethane-1,2-diamine], the negative logarithm of the IC50 (pIC50) in experiment [1] (setting [3]) and in experiment [2] (setting [3]) was 8.00 in each case.
Regarding `CN(CCN)Cc1c[nH]nc1C1CCC2(CCCC2)CC1` [Compound 45], the pIC50 in experiment [1] is greater than 7.00; in experiment [1] (setting [3]), 8.25; in experiment [2], greater than 7.00; in experiment [2] (setting [3]) it was 8.55.
For the compound `CNCCN(C)Cc1c[nH]nc1C1CCC(C)(C)C(COCC(C)C)C1` (stereo not drawn) [Compound 95], the pIC50 in experiment [1] is greater than 7.00; in experiment [1] (setting [3]) it was 7.16; in experiment [2], greater than 7.00; in experiment [2] (setting [3]), 8.03.
`CNCCN(C)Cc1ccnn1C1CCC2(CC1)CC(C)(C)CO2` (stereo not drawn) [Compound 274, trifluoroacetate]: the negative-log IC50 (pIC50) in experiment [1] was 6.00 to 7.00; in experiment [1] (setting [3]), 6.99; in experiment [2], greater than 7.00; in experiment [2] (setting [3]) it was 8.09.
In the case of `CNCCN(C)Cc1c[nH]nc1C1CCN(C(=O)C(C)C)CC1` [Compound 34], the pIC50 in experiment [1] (setting [3]) is 7.52; in experiment [2] (setting [3]), 7.70.
On the same counts, the results for `CNCCN(C)Cc1c[nH]nc1C1CCN(C(=O)CC(C)C)CC1` [Compound 40, 3-methyl-1-(4-(4-((methyl(2-(methylamino)ethyl)amino)methyl)-1H-pyrazol-3-yl)piperidin-1-yl)butan-1-one] are 7.70 and 7.70.
`CNCCN(C)Cc1c[nH]nc1C1CCC2(CCCO2)CC1` (stereo not drawn) [Compound 51]: the pIC50 in experiment [1] is greater than 7.00; in experiment [1] (setting [3]) it was 7.62; in experiment [2], greater than 7.00; in experiment [2] (setting [3]), 8.03.
Consider `CNCCN(C)Cc1cnn(C)c1C1CCC2(CCCC2)CC1` [Compound 49], for which the negative-log IC50 (pIC50) is greater than 7.00 in experiment [1], 7.70 in experiment [1] (setting [3]), greater than 7.00 in experiment [2] and 8.37 in experiment [2] (setting [3]).
Turning to `CNCCN(C)Cc1c[nH]nc1C1CCN(CC(C)C)CC1` [Compound 39, N^1-((3-(1-isobutylpiperidin-4-yl)-1H-pyrazol-4-yl)methyl)-N^1,N^2-dimethylethane-1,2-diamine], the pIC50 in experiment [1] (setting [3]) is 8.00.
With `CN(CCN)Cc1c[nH]nc1/C=C/c1ccc(F)cc1F` [Compound 13], the pIC50 in experiment [1] (setting [3]) and in experiment [2] (setting [3]) was 8.00 throughout.
`CNCCN(C)Cc1c[nH]nc1C1CC(C)(C)OC(C)(C)C1` [Compound 59]: the negative-log IC50 (pIC50) in experiment [1] is 6.00 to 7.00; in experiment [1] (setting [3]), 6.89; in experiment [2] it was greater than 7.00; in experiment [2] (setting [3]), 7.71.
On the same counts, the results for `CNCCN(C)Cc1c[nH]nc1[C@@H]1CCC(C)(C)[C@@H](C(=O)NCCCOC)C1` [Compound 271, (1S,5R)—N-(3-methoxypropyl)-2,2-dimethyl-5-[4-({methyl[2-(methylamino)ethyl]amino}methyl)-1H-pyrazol-3-yl]cyclohexane-1-carboxamide] are 6.00 to 7.00, 6.92, greater than 7.00 and 7.43.
On the same counts, the results for `CNCCN(C)Cc1c[nH]nc1C1CCC(C)(C)C(C(=O)NCCCOC)C1` (stereo not drawn) [Compound 93] are greater than 7.00, 7.14, greater than 7.00 and 7.50.
As for `CNCCN(C)Cc1c[nH]nc1/C=C/c1ccc(OC)cc1` [Compound 7], the figures for the negative-log IC50 (pIC50) in experiment [1] (setting [3]) and in experiment [2] (setting [3]) were 7.70 and 8.00, respectively.
On the same counts, the results for `CN(CCN)Cc1c[nH]nc1/C=C/Cc1ccccc1` [Compound 24] are 6.74 and 7.70.
Regarding `CNCCN(C)Cc1ccnn1C1CCC2(CCCC2)CC1` [Compound 275, Methyl[2-(methylamino)ethyl][(1-[spiro[4.5]decan-8-yl]-1H-pyrazol-5-yl)methyl]amine trifluoroacetate], the pIC50 in experiment [1] was greater than 7.00; in experiment [1] (setting [3]), 7.73; in experiment [2] it was greater than 7.00; in experiment [2] (setting [3]), 8.34.
As to `CNCCN(C)Cc1c[nH]nc1C1CCC2(CCCCC2)OC1` (stereo not drawn) [Compound 62], the pIC50 was greater than 7.00 in experiment [1], 7.54 in experiment [1] (setting [3]), greater than 7.00 in experiment [2] and 7.93 in experiment [2] (setting [3]).
As to `CN(CCN)Cc1c[nH]nc1C1CCCC1` [Compound 31], the pIC50 in experiment [1] (setting [3]) is 7.52; in experiment [2] (setting [3]) it was 6.96.
`CNCCN(C)Cc1c[nH]nc1C1CCC(C(C)C)CC1` (stereo not drawn) [Compound 50]: the negative logarithm of the IC50 (pIC50) is greater than 7.00 in experiment [1], 7.69 in experiment [1] (setting [3]), greater than 7.00 in experiment [2] and 8.07 in experiment [2] (setting [3]).
Regarding `CNCCN(C)Cc1c[nH]nc1C1CCNCC1` [Compound 42], the pIC50 in experiment [1] (setting [3]) was 7.70.
On to `CNCCN(C)Cc1c[nH]nc1C1CCC(COC)(COC)CC1` [Compound 57], for which the negative-log IC50 (pIC50) in experiment [1] is greater than 7.00; in experiment [1] (setting [3]) it was 7.16; in experiment [2], greater than 7.00; in experiment [2] (setting [3]), 7.73.
`CN(CCN)Cc1c[nH]nc1C(C)(C)C` [Compound 27]: the pIC50 in experiment [1] (setting [3]) is 5.62.
For `CNCCN(C)Cc1c[nH]nc1[C@H]1CC[C@]2(CC1)CC(C)(C)CO2` [Compound 134, methyl[2-(methylamino)ethyl]([3-[(5r,8r)-3,3-dimethyl-1-oxaspiro[4.5]decan-8-yl]-1H-pyrazol-4-yl]methyl)amine], the pIC50 is greater than 7.00 in experiment [1] and 7.45 in experiment [1] (setting [3]).
Regarding `CNCCN(C)Cc1c[nH]nc1C#Cc1ccc(F)cc1` [Compound 4], the negative-log IC50 (pIC50) in experiment [1] (setting [3]) and in experiment [2] (setting [3]) was 7.70 throughout.
In the case of `CNCCN(C)Cc1c[nH]nc1C1CCC2(CCOC2)CC1` (stereo not drawn) [Compound 54], the pIC50 in experiment [1] is greater than 7.00; in experiment [1] (setting [3]) it was 7.42; in experiment [2], greater than 7.00; in experiment [2] (setting [3]) it was 8.10.
In the case of `CN(CCN)Cc1c[nH]nc1C1=CCCC1` [Compound 25], the figures for the negative-log IC50 (pIC50) in experiment [1] (setting [3]) and in experiment [2] (setting [3]) were 6.54 and 6.60, respectively.
For `COC/C=C/c1n[nH]cc1CN(C)CCN` [Compound 19], in that order: 6.77 and 6.72.
`CNCCN(C)Cc1c[nH]nc1C1CCC(COC(C)C)(COC(C)C)CC1` [Compound 61]: the negative logarithm of the IC50 (pIC50) in experiment [1] is greater than 7.00; in experiment [1] (setting [3]), 7.31; in experiment [2], greater than 7.00; in experiment [2] (setting [3]), 7.69.
In the case of `CN(CCN)Cc1c[nH]nc1/C=C/c1ccc(C(F)(F)F)cc1` [Compound 18], the pIC50 in experiment [1] (setting [3]) is 8.00.
As to `CNCCN(C)Cc1c[nH]nc1C1CCC2(CCC(C)(C)CC2)OC1` (stereo not drawn) [Compound 65], the pIC50 was greater than 7.00 in experiment [1], 7.38 in experiment [1] (setting [3]), greater than 7.00 in experiment [2] and 8.02 in experiment [2] (setting [3]).
Take `COc1cc(/C=C/c2n[nH]cc2CN(C)CCN)cc(OC)c1` [Compound 11]: the negative logarithm of the IC50 (pIC50) is 7.30 in experiment [1] (setting [3]) and 8.00 in experiment [2] (setting [3]).
Consider `CNCCN(C)Cc1c[nH]nc1[C@@H]1CCC(C)(C)[C@@H](C(=O)NCCOC)C1` [Compound 269], for which the pIC50 is 6.00 to 7.00 in experiment [1], 6.97 in experiment [1] (setting [3]), greater than 7.00 in experiment [2] and 7.29 in experiment [2] (setting [3]).
As to `CN(CCN)Cc1c[nH]nc1C1CCC1` [Compound 26], the pIC50 in experiment [1] (setting [3]) was 6.29.
On to `CC1CCC(c2c[nH]nc2CN(C)CCN)CC1` (stereo not drawn) [Compound 35], for which the negative logarithm of the IC50 (pIC50) in experiment [1] (setting [3]) was 8.00.
The same measure, in the same setting: the figure for `CN(CCN)Cc1n[nH]cc1C1CCC(N2CCOCC2)CC1` (stereo not drawn) [Compound 44, N^1-methyl-N^1-((4-(4-morpholinocyclohexyl)-1H-pyrazol-3-yl)methyl)ethane-1,2-diamine] is 7.70.
In turn, `CNCCN(C)Cc1c[nH]nc1C1CCN(C)CC1` [Compound 41] gave a negative-log IC50 (pIC50) in experiment [2] (setting [3]) of 8.00.
As for `Cc1n[nH]cc1CN(C)CCN` [Compound 30], in experiment [1] (setting [3]), the pIC50 was 5.18.
`CNCCN(C)Cc1c[nH]nc1/C=C/c1ccc(-c2ccccc2)cc1` [Compound 5]: the pIC50 in experiment [2] (setting [3]) was 8.00.
On to `CN(CCN)Cc1c[nH]nc1C1CCC(C)(C)CC1` [Compound 38, N^1-((3-(4,4-dimethylcyclohexyl)-1H-pyrazol-4-yl)methyl)-N^1-methylethane-1,2-diamine], for which the negative logarithm of the IC50 (pIC50) in experiment [1] (setting [3]) is 8.00.
As for `CCCc1n[nH]cc1CN(C)CCN` [Compound 29], the negative logarithm of the IC50 (pIC50) in experiment [1] (setting [3]) is 6.54.
In the case of `CNCCN(C)Cc1c[nH]nc1[C@H]1CC[C@@]2(CC1)CC(C)(C)CO2` [Compound 133, Methyl[2-(methylamino)ethyl]([3-[(5s,8s)-3,3-dimethyl-1-oxaspiro[4.5]decan-8-yl]-1H-pyrazol-4-yl]methyl)amine], the pIC50 in experiment [1] was greater than 7.00; in experiment [1] (setting [3]), 7.91.
